Source: patent publication US11179430B2, “Extracts from mother-of-thyme and the use i'hereof” (Finzelberg GmbH & Co. KG, priority 2012, dated 2021)

Test system: TNBS-induced colitis in Wistar rats
Assay: In vivo TNBS test model (colitis in rats)
Protocol: Female Wistar rats (200-210 g) were kept in Makrolon cages in air-conditioned animal quarters with 12 hours light-dark cycle, fed standard rodent food and water ad libitum throughout the experiment. The rats are randomly assigned to six groups (n=10). Two groups (healthy and sick controls) obtain 1 ml of the administration medium orally, and the test groups obtain either 100 mg/kg BW of a wild thyme extract formulation according to Example 4, or 70 mg/kg BW of a wild thyme extract formulation according to Example 3, or 30 mg/kg BW of the prebiotic Nutriose, or 100 mg/kg BW sulfasalazine (SAZ) in the reference group. All test substances are administered once a day as a solution or suspension through a gastric tube for a period of 7 days. The administration of the test substances starts at the same day as the colitis induction. For this purpose, the rats are fasted over night, and then a colitis is induced in both the sick control group and the treatment groups with TNBS as follows: During a halothane anesthesia, a solution (10 mg of TNBS dissolved in 0.25 ml of ethanol 50% v/v) is injected from a Teflon cannula through the anus 8 cm deep into the intestine. The rats of the healthy control group are administered 0.25 ml of a PBS solution instead of the TNBS solution. The body weight, the water and food intake and the stool consistency are recorded daily during the testing period. One week after the start of the colitis induction, all the rats are sacrificed by an overdose of halothane, and the intestine is removed for evaluating the intestinal damage. The intestinal segment is cleaned from fat and mesenterium, and transferred to a filter paper. Each specimen is weighed, and its length is measured under a constant load (2 g), and the weight-to-length ratio is determined therefrom. Independently of the treatment employed, the intestine is evaluated macroscopically for visible damage on a scale of from 0 to 10 by two observers by means of previously defined criteria, which take the extension and severity of the damage into account. […]

In the case of O=C(O)c1cc(/N=N/c2ccc(S(=O)(=O)Nc3ccccn3)cc2)ccc1O [Sulfasalazine, sulfasalazine], the IL-6 (100 mg/kg oral once a day, 7 days, colitic control 281.8 ± 26.8) is reported as 222.0 ± 16.1 ng/g, the MPO (100 mg/kg oral once a day, 7 days, colitic control 8969.6 ± 1402.0) is reported as 5591.5 ± 537.0 mU/g and the “significant influence on the parameters of Table 3, in words” value (doses as in Table 3, vs. colitic control) is reported as “could not show significant improvements in all parameters”.
